In one test the target is JAK1 (Homo sapiens (Human), UniProt P23458). In words: Jak Biochemical HTRF Assay, JAK1. As to conditions: HTRF biochemical assay, GST-tagged catalytic domain; top concentration tested […]; read-out: JAK1 IC50. From the text: (§1) Jak Biochemical HTRF Assay Protocol
Chain of JAK1 (P23458 875-1153): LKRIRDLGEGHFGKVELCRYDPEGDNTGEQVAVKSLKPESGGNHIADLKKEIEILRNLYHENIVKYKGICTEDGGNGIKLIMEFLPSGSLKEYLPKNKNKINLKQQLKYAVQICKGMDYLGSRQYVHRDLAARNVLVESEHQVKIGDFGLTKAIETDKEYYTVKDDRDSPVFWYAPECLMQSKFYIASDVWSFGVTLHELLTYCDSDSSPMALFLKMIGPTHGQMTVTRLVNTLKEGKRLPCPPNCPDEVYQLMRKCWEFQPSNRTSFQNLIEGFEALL
(§2) Subsequent reagent additions employed an Agilent Bravo.
Turning to `Cc1ccc(F)cc1NC(=O)N1CC(CC#N)(n2cc(C(N)=O)c(Nc3ccccc3)n2)C1` [Example 38-38, 1-{3-(cyanomethyl)-1-[(5-fluoro-2-methylphenyl)carbamoyl]azetidin-3-yl}-3-(phenylamino)-1H-pyrazole-4-carboxamide], the half-inhibitory concentration (IC50) worked out at 13 nM.

In the case of `N#CCC1(n2cc(C(N)=O)c(Nc3ccccc3)n2)CCN(C(=O)Nc2ccc(C#N)cc2)CC1` [Example 38-47, 4-[4-carbamoyl-3-(phenylamino)-1H-pyrazol-1-yl]-4-(cyanomethyl)-N-(4-cyanophenyl)piperidine-1-carboxamide], the IC50 turned out to be 0.2 nM.

Take `N#CCC1(n2cc(C(N)=O)c(Nc3ccc(C(F)(F)F)cc3)n2)CCC(N2CC(F)C2)CC1` (centres unmarked) [Example 39-2, 1-[1-(cyanomethyl)-4-(3-fluoroazetidin-1-yl)cyclohexyl]-3-{[4-(trifluoromethyl)phenyl]amino}-1H-pyrazole-4-carboxamide]: the IC50 was determined as 0.1 nM.

With `N#CCC1(n2cc(C(N)=O)c(Nc3ccnc(F)c3)n2)CCC(Nc2ccccn2)CC1` (stereo not drawn) [Example 40-4, Cis or trans 1-[1-(cyanomethyl)-4-(pyridin-2-ylamino)cyclohexyl]-3-[(2-fluoropyridin-4-yl)amino]-1H-pyrazole-4-carboxamide], the concentration for half-maximal inhibition (IC50) is 102 nM.

On to `N#CCC1(n2cc(C(N)=O)c(Nc3ccnc(F)c3)n2)CCC(N2CCC(O)CC2)CC1` (stereo not drawn) [Example 40-13, Cis or trans 1-[1-(cyanomethyl)-4-(4-hydroxypiperidin-1-yl)cyclohexyl]-3-[(2-fluoropyridin-4-yl)amino]-1H-pyrazole-4-carboxamide], for which the concentration for half-maximal inhibition (IC50) came to 115 nM.

As for `N#CCC1(n2cc(C(N)=O)c(Nc3ccnc(F)c3)n2)CCC(Nc2ccccc2F)CC1` (stereo not drawn) [Example 40-17, Cis or trans 1-{1-(cyanomethyl)-4-[(2-fluorophenyl)amino]cyclohexyl}-3-[(2-fluoropyridin-4-yl)amino]-1H-pyrazole-4-carboxamide], the IC50 was determined as 0.04 nM.

Turning to `N#CCC1(n2cc(C(N)=O)c(Nc3ccnc(F)c3)n2)CCC(Nc2ccccn2)CC1` (stereo not drawn) [Example 40-22, Cis or trans 1-[1-(cyanomethyl)-4-(pyridin-2-ylamino)cyclohexyl]-3-[(2-fluoropyridin-4-yl)amino]-1H-pyrazole-4-carboxamide], the IC50 came out at 4 nM.

For the compound `N#CCC1(n2cc(C(N)=O)c(Nc3ccnc(F)c3)n2)CCC(Nc2ccccc2F)CC1` (stereo not drawn) [Example 40-24, Cis or trans 1-{1-(cyanomethyl)-4-[(2-fluorophenyl)amino]cyclohexyl}-3-[(2-fluoropyridin-4-yl)amino]-1H-pyrazole-4-carboxamide], the IC50 worked out at 8 nM.

`N#CCC1(n2cc(C(N)=O)c(Nc3ccc(F)cc3)n2)CCC(Nc2ccc(F)c(F)c2)CC1` (stereo not drawn) [Example 40-35, Cis or trans 1-{1-(cyanomethyl)-4-[(3,4-difluorophenyl)amino]cyclohexyl}-3-[(4-fluorophenyl)amino]-1H-pyrazole-4-carboxamide]: the half-inhibitory concentration (IC50) was found to be 0.8 nM.

Turning to `N#CCC1(n2cc(C(N)=O)c(Nc3ccc(F)cc3)n2)CCC(Nc2cc(F)ccc2F)CC1` (stereo not drawn) [Example 40-50, Cis and trans 1-{1-(cyanomethyl)-4-[(2,5-difluorophenyl)amino]cyclohexyl}-3-[(4-fluorophenyl)amino]-1H-pyrazole-4-carboxamide], the IC50 was 0.1 nM.

For the compound `N#CCC1(n2cc(C(N)=O)c(Nc3ccc(F)cc3)n2)CCC(NCCO)CC1` (stereo not drawn) [Example 40-68, Cis or trans 1-{1-(cyanomethyl)-4-[(2-hydroxyethyl)amino]cyclohexyl}-3-[(4-fluorophenyl)amino]-1H-pyrazole-4-carboxamide], the half-inhibitory concentration (IC50) stood at 69 nM.

For `CNC1CCC(CC#N)(n2cc(C(N)=O)c(Nc3ccc(F)cc3)n2)CC1` (stereo not drawn) [Example 40-78, Cis or trans 1-[1-(cyanomethyl)-4-(methylamino)cyclohexyl]-3-[(4-fluorophenyl)amino]-1H-pyrazole-4-carboxamide], the IC50 turned out to be 12 nM.

`N#CCC1(n2cc(C(N)=O)c(Nc3ccnc(F)c3)n2)CCC(Nc2ccccc2)CC1` (stereo not drawn) [Example 40-86, Cis or trans 1-[1-(cyanomethyl)-4-(phenylamino)cyclohexyl]-3-[(2-fluoropyridin-4-yl)amino]-1H-pyrazole-4-carboxamide]: the IC50 stood at 0.06 nM.

Turning to `N#CCC1(n2cc(C(N)=O)c(Nc3ccc(S(=O)(=O)C(F)F)cc3)n2)CCC(N2CC(F)C2)CC1` (stereo not drawn) [Example 40-91, Cis or trans 1-[1-(cyanomethyl)-4-(3-fluoroazetidin-1-yl)cyclohexyl]-3-({4-[(difluoromethyl)sulfonyl]phenyl}amino)-1H-pyrazole-4-carboxamide], the 50% inhibitory concentration (IC50) turned out to be 67 nM.

`N#CCC1(n2cc(C(N)=O)c(Nc3ccc(F)cc3)n2)CCC(NCc2ccc(C#N)cc2)CC1` (stereo not drawn) [Example 40-97, Cis or trans 1-{4-[(4-cyanobenzyl)amino]-1-(cyanomethyl)cyclohexyl}-3-[(4-fluorophenyl)amino]-1H-pyrazole-4-carboxamide]: the 50% inhibitory concentration (IC50) was determined as 25 nM.

`N#CCC1(n2cc(C(N)=O)c(Nc3ccc(F)cc3)n2)CCC(NCC(F)(F)F)CC1` (stereo not drawn) [Example 40-98, Cis or trans 1-{1-(cyanomethyl)-4-[(2,2,2-trifluoroethyl)amino]cyclohexyl}-3-[(4-fluorophenyl)amino]-1H-pyrazole-4-carboxamide]: the 50% inhibitory concentration (IC50) turned out to be 1 nM.

For `N#CCC1(n2cc(C(N)=O)c(Nc3ccc(F)cc3)n2)CCC(NCC(F)(F)F)CC1` (stereo not drawn) [Example 40-101, Cis or trans 1-{1-(cyanomethyl)-4-[(2,2,2-trifluoroethyl)amino]cyclohexyl}-3-[(4-fluorophenyl)amino]-1H-pyrazole-4-carboxamide], the IC50 was found to be 18 nM.

Turning to `N#CCC1(n2cc(C(N)=O)c(Nc3ccc(S(=O)(=O)C(F)F)cc3)n2)CCC(N2CC(F)C2)CC1` (stereo not drawn) [Example 40-105, Cis or trans 1-[1-(cyanomethyl)-4-(3-fluoroazetidin-1-yl)cyclohexyl]-3-({4-[(difluoromethyl)sulfonyl]phenyl}amino)-1H-pyrazole-4-carboxamide], the half-maximal inhibitory concentration (IC50) is 0.08 nM.

Take `N#CCC1(n2cc(C(N)=O)c(Nc3ccnc(F)c3)n2)CCC(NCc2cccc(O)c2)CC1` (stereo not drawn) [Example 41-5, Cis or trans 1-{1-(cyanomethyl)-4-[(3-hydroxybenzyl)amino]cyclohexyl}-3-[(2-fluoropyridin-4-yl)amino]-1H-pyrazole-4-carboxamide]: the half-maximal inhibitory concentration (IC50) turned out to be 10 nM.

`N#CC[C@]1(n2cc(C(N)=O)c(Nc3ccnc(F)c3)n2)CC[C@@H](NS(=O)(=O)c2cccc(F)c2)CC1` [Example 42, cis-1-(1-(Cyanomethyl)-4-(3-fluorophenylsulfonamido)cyclohexyl)-3-((2-fluoropyridin-4-yl)amino)-1H-pyrazole-4-carboxamide]: the IC50 is 8 nM.

Still in this test, the particulars now being: read-out: JAK1 IC50.
As for `N#CCC1(n2cc(C(N)=O)c(Nc3ccc(S(=O)(=O)C(F)F)cc3)n2)CCC(Nc2cccnc2)CC1` (stereo not drawn) [Example 40-8, Cis or trans 1-[1-(cyanomethyl)-4-(pyridin-3-ylamino)cyclohexyl]-3-({4-[(difluoromethyl)sulfonyl]phenyl}amino)-1H-pyrazole-4-carboxamide], the IC50 amounted to 0.3 nM.

As to `N#CCC1(n2cc(C(N)=O)c(Nc3ccc(S(=O)(=O)C(F)F)cc3)n2)CCC(Nc2ccccc2O)CC1` (stereo not drawn) [Example 40-48, Cis or trans 1-{1-(cyanomethyl)-4-[(2-hydroxyphenyl)amino]cyclohexyl}-3-({4-[(difluoromethyl)sulfonyl]phenyl}amino)-1H-pyrazole-4-carboxamide], the IC50 worked out at 0.4 nM.

The target in a further test is JAK2 (Homo sapiens (Human), UniProt O60674). Description: Jak Biochemical HTRF Assay, JAK2.
Chain of JAK2 (O60674 849-1124): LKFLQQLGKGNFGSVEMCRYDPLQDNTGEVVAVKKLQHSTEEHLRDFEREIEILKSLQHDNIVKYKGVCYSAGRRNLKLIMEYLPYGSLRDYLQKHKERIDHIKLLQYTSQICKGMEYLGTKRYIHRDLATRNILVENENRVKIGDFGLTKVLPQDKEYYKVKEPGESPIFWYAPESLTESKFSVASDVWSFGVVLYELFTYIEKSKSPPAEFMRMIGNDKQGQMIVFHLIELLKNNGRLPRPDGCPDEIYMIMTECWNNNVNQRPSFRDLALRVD
Details: not given
From the text: as §1, §2
`COC(=O)C(C)(C)OC(=O)N1CCC(CC#N)(n2cc(C(N)=O)c(Nc3ccc(F)cc3)n2)CC1` [Example 29-A, 1-Methoxy-2-methyl-1-oxopropan-2-yl4-{4-carbamoyl-3-[(4-fluorophenyl)amino]-1H-pyrazol-1-yl}-4-(cyanomethyl)piperidine-1-carboxylate] yielded an IC50 of 40 nM.

Staying with this test, now noted: HTRF biochemical assay, GST-tagged catalytic domain; top concentration tested […].
Take `C[C@H]1CN(C(=O)OC(C)(C)C)CC[C@]1(CC#N)n1cc(C(N)=O)c(Nc2ccccc2)n1` (racemic) [Example 2-9, tert-Butyl (3S,4R and 3R,4S)-4-[4-carbamoyl-3-(phenylamino)-1H-pyrazol-1-yl]-4-(cyanomethyl)-3-methylpiperidine-1-carboxylate]: the concentration for half-maximal inhibition (IC50) was found to be 21 nM.

In turn, `C[C@H]1CN(C(=O)OC(C)(C)C)CC[C@]1(CC#N)n1cc(C(N)=O)c(Nc2ccccc2)n1` (single isomer, unassigned) [Example 48-1, tert-Butyl (3S,4R or 3R,4S)-4-[4-carbamoyl-3-(phenylamino)-1H-pyrazol-1-yl]-4-(cyanomethyl)-3-methylpiperidine-1-carboxylate] returned a concentration for half-maximal inhibition (IC50) of 24 nM.

In turn, `C[C@H]1CN(C(=O)OC(C)(C)C)CC[C@]1(CC#N)n1cc(C(N)=O)c(Nc2ccccc2)n1` (single isomer, unassigned) [Example 48-2, tert-Butyl (3S,4R or 3R,4S)-4-[4-carbamoyl-3-(phenylamino)-1H-pyrazol-1-yl]-4-(cyanomethyl)-3-methylpiperidine-1-carboxylate] had a half-maximal inhibitory concentration (IC50) of 487 nM.

`N#CCC1(n2cc(C(N)=O)c(Nc3ccc(F)cc3)n2)CCN(C(=O)OC2CCOC2)CC1` (single isomer, unassigned) [Example 50-1, (3S or 3R)-tetrahydrofuran-3-yl 4-{4-carbamoyl-3-[(4-fluorophenyl)amino]-1H-pyrazol-1-yl}-4-(cyanomethyl)piperidine-1-carboxylate]: the IC50 was determined as 47 nM.

`N#CCC1(n2cc(C(N)=O)c(Nc3ccc(F)cc3)n2)CCN(C(=O)OC2CCOC2)CC1` (single isomer, unassigned) [Example 50-2, (3S or 3R)-tetrahydrofuran-3-yl4-{4-carbamoyl-3-[(4-fluorophenyl)amino]-1H-pyrazol-1-yl}-4-(cyanomethyl)piperidine-1-carboxylate] returned an IC50 of 62 nM.

The compound `N#CCC1(n2cc(C(N)=O)c(Nc3ccccc3)n2)CCOCC1` [Example 6-5, 1-[4-(cyanomethyl)tetrahydro-2H-pyran-4-yl]-3-(phenylamino)-1H-pyrazole-4-carboxamide] yielded a concentration for half-maximal inhibition (IC50) of 133 nM.

The record behind these values is patent US9328099B2, “Cyanomethylpyrazole carboxamides as janus kinase inhibitors” (Merck Sharp & Dohme Corp., priority 2011, dated 2016).
